US4450173A, “Compounds and method for treatment or prophylaxis of cardiac disorders” (American Hospital Supply Corporation, priority 1982, dated 1984)
Where two headings read alike, the source gives them in different places.

How the values were obtained:
[1] = tested on: guinea pig right atria and guinea pig tracheal strips; assay: Cardioselectivity, KB tracheal/KB atrial; format: cell-based
Procedure: Several of the compounds of the present invention were tested for β-blocking activity in vitro using guinea pig right atria and guinea pig tracheal strips mounted in a tissue bath containing oxygenated (95% O2 -5% CO2) Krebs physiological salt solution at 37° C. Each tissue was suspended between a fixed glass rod and a Statham® Universal Transducer connected to a Beckman® recorder. Atria were allowed to beat spontaneously under a loading tension of approximately 0.5 gm. Intrinsic depressant for stimulant activity was determined for each compound by progressively increasing concentrations in the tissue baths at 60-minute intervals. Tissues were not washed between increments. […]. Changes in rate in response to isoproterenol were measured in the absence and presence of test compounds. Spiral strips of guinea pig trachea were suspended under 5 gm resting tension and incubated with phentolamine, tropolone and cocaine. Active tension was generated by addition of carbachol (3.0×10^-7 M) and decreases in tension in response to isoproterenol were quantitated. Cumulative concentration-response curves were produced with isoproterenol both before and after 60 minute incubation of test compounds with atria and trachea. The blocking potency of test compounds was estimated by computing pA2 values (-log KB) by the method of Furchgott, The Pharmacological Differentiation of Adrenergic Receptors, Ann. N.Y. Acad. Sci.; 139: 553-570 (1967). Comparison of blockade of right atrial and tracheal responses to isoproterenol permitted assessment of cardioselectivity of test compounds; […]. A ratio greater than one indicates cardioselectivity. […]

[2] = Disappearance in vitro in dog liver homogenate; format: in vitro ADME; conditions: 50 μg in 1 mL added to 1 mL of 33% (w/v) dog liver homogenate, 37° C.; read-out: T1/2 Dog Liver Homogenate
Procedure: (§1) The rate of disappearance of a compound is expressed as the half-life (T1/2), which is the time period in which one-half of the initial amount of compound tested disappears. In each experiment, 1 mL of a solution containing 50 μg of the test compound was added to 1 mL of whole blood or 1 mL of a 33% (w/v) liver homogenate. […] At the designated time periods, the test mixtures were removed from the incubator and transferred to a 0° C. ice bath. Acetonitrile (2 mL) was immediately added and the mixtures were mixed to stop enzymatic hydrolysis. Zero time samples were prepared by adding 2 mL of acetonrile to denature the proteins prior to addition of the test compounds. […] The half life of each test compound was determined graphically by plotting the decrease in concentration as a function of time.

[3] = Disappearance in vitro in dog whole blood; format: in vitro ADME; conditions: 50 μg in 1 mL added to 1 mL dog whole blood, 37° C.; read-out: T1/2 Dog Whole Blood
Procedure: as §1

[4] = tested on: heart rate response to isoproterenol (β-receptor mediated tachycardia); assay: Duration of β-blockade in vivo in anesthetized dogs, 40-minute infusion; set-up: species or system dog; conditions: for ED50: Canis lupus familiaris, iv, 40 min, read-out: Potency (mg/kg/40 min); for 80% Recovery Time: after 40-minute infusion, normalized to 50% inhibition, dogs
Procedure: (§2) The duration of β-blockade was determined in vivo using pentobartital-anesthetized dogs instrumented for measurement of heart rate using a Beckman® cardiotachometer triggered electronically by a phasic aortic blood pressure signal. Both vagus nerves were severed in the cervical region and the animals were mechanically ventilated. Two experimental designs were used. The first employed a 40-minute infusion of test compound and the second used a 3-hour infusion of test compound. In the 40-minute model, isoproterenol was infused into a foreleg vein at the rate of 0.5 μg/kg/min to induce a β-receptor mediated tachycardia. Various doses of test compound are then infused into a femoral vein over a period of 40 minutes. This infusion was then terminated and recovery from blockade was quantitated. […] This cumulative dose is expressed as mg/kg and is an indication of potency. The time period required for 80% recovery of heart rate response for each dose of test drug was also measured to quantitate duration of action. […] Test compounds were dissolved in 0.9% NaCl and infused at a rate of 0.05 mL/kg/min or less. In the 3-hour infusion model, bolus doses of isoproterenol (0.4 μg/kg) were used to assess the degree of β-blockade and recovery from β-blockade after termination of the infusion. The doses were spaced at 10-minute intervals and were given before, during and following the infusion of test compounds. The infusion rate was adjusted so that at the end of the 3-hour infusion period the degree of isoproterenol inhibition averaged about 50% of control.

[5] = biological target: guinea pig tracheal strips (Cavia porcellus, UniProt Q8K4Z4); assay: cell-based; format: cell-based; conditions: guinea pig trachea, carbachol tension, isoproterenol, 60 minute incubation, pA2 = -log KB
Chain of guinea pig tracheal strips (Q8K4Z4 whole entry): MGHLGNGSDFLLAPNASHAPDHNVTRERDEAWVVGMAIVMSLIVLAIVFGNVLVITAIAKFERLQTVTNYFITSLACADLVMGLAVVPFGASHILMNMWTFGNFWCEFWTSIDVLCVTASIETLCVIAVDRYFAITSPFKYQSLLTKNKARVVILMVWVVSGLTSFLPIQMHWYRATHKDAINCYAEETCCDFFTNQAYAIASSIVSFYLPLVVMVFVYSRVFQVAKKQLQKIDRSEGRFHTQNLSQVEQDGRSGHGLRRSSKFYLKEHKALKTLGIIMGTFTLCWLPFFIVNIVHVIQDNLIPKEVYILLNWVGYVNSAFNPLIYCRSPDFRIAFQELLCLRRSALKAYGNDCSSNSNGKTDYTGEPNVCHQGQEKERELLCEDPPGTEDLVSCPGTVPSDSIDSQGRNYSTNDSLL
Procedure: Each tissue was suspended between a fixed glass rod and a Statham® Universal Transducer connected to a Beckman® recorder. Atria were allowed to beat spontaneously under a loading tension of approximately 0.5 gm. Intrinsic depressant for stimulant activity was determined for each compound by progressively increasing concentrations in the tissue baths at 60-minute intervals. Tissues were not washed between increments. […] Changes in rate in response to isoproterenol were measured in the absence and presence of test compounds. Spiral strips of guinea pig trachea were suspended under 5 gm resting tension and incubated with phentolamine, tropolone and cocaine. Active tension was generated by addition of carbachol (3.0×10^-7 M) and decreases in tension in response to isoproterenol were quantitated. Cumulative concentration-response curves were produced with isoproterenol both before and after 60 minute incubation of test compounds with atria and trachea. The blocking potency of test compounds was estimated by computing pA2 values (-log KB) by the method of Furchgott, The Pharmacological Differentiation of Adrenergic Receptors, Ann. […] A ratio greater than one indicates cardioselectivity.

[6] = Disappearance in vitro in human whole blood; format: in vitro ADME; conditions: 50 μg in 1 mL added to 1 mL human whole blood, 37° C.; read-out: T1/2 Human Whole Blood
Procedure: as §1

[7] = tested on: heart rate response to isoproterenol; assay: Duration of β-blockade in vivo in anesthetized dogs, 3-hour infusion; set-up: species or system dog
Procedure: as §2

Row | half-life [2] [min] | half-life [3] [h] | pA2 Trachea [5] | half-life [6] [h] | SMILES | Cardioselectivity [1] | ED50 [4] [mg/kg] | 80% Recovery Time [4] [min] | Cardioselectivity ([1]; ratio KB tracheal/KB atrial, greater than one indicates cardioselectivity) | ED50 ([7]; Canis lupus familiaris, iv, 3-hour infusion, bolus isoproterenol 0.4 μg/kg, read-out: Potency (mg/kg/180 min)) [mg/kg] | 80% Recovery Time ([7]; after 3-hour infusion) [min] | % I (Percent inhibition of heart rate response to isoproterenol) ([7]; end of 3-hour infusion, bolus isoproterenol 0.4 μg/kg) [%]
1 | 8.8 ± 6 | 2.53 ± 1.18 | 7.4 | 1.55 ± 0.5 | CCOC(=O)CCCCNCC(O)COc1ccccc1C (centres unmarked) [XII] | 2.5 | 6.8 ± 3.7 | 11 ± 2 |  |  |  | 
2 | 3 ± 1 | 3 | 7.4 | 2.58 ± 0.15 | CCOC(=O)CCNCC(O)COc1ccccc1C (centres unmarked) [X] |  | 0.99 ± 0.27 | 14 ± 2 | 1 | 6.8 | > 60 | 69 ± 5
